In this assay the target is T1, KRAS^G12C::SOS1 (Homo sapiens, UniProt Q07889).
T1 sequence (Q07889 1-1333): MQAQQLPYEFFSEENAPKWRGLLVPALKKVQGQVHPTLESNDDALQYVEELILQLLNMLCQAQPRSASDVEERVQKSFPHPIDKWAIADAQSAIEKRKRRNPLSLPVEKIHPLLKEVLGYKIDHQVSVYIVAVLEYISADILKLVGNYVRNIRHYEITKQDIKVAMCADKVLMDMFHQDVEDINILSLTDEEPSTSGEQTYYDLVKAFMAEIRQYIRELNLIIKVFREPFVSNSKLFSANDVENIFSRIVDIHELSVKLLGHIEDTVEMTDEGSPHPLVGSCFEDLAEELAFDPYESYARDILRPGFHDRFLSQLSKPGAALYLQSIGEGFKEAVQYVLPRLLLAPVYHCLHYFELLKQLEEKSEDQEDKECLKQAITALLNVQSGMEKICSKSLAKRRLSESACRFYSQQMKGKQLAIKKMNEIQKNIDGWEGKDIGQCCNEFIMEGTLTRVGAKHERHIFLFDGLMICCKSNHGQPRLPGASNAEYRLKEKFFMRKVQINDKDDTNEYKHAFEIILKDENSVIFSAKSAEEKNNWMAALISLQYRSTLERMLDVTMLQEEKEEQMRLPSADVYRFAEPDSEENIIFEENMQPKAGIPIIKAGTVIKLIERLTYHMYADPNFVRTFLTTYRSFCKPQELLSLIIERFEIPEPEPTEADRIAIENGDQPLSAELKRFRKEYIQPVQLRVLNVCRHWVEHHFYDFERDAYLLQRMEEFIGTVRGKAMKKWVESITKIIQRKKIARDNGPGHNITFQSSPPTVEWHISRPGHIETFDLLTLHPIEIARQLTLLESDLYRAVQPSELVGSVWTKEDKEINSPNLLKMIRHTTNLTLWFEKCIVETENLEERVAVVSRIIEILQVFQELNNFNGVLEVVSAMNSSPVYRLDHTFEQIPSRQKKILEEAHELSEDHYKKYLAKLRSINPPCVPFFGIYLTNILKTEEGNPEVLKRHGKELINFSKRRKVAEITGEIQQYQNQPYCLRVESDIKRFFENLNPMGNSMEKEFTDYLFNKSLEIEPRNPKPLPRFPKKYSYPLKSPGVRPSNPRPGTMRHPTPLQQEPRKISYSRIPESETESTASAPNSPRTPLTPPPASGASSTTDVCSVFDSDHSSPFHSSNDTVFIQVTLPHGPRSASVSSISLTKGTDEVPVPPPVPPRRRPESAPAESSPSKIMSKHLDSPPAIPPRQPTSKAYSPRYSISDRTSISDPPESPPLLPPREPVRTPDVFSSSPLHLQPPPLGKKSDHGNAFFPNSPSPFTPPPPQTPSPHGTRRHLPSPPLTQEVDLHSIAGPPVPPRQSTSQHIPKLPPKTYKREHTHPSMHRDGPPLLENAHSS
In words: KRAS G12C::SOS1 protein-protein interaction (PPI) inhibition assay (HTRF binding kit).
`C[C@@H](NC(=O)c1ccc(=O)n(-c2cccc(-c3ccn(C(F)F)n3)c2)n1)c1cc(N)cc(C(F)(F)F)c1` [Example 344, N-[(1R)-1-[3-amino-5-(trifluoromethyl)phenyl]ethyl]-1-[3-[1-(difluoromethyl)pyrazol-3-yl]phenyl]-6-oxo-pyridazine-3-carboxamide] yielded a 50% inhibitory concentration (IC50) of less than 1000 nM. Molecule `C[C@@H](NC(=O)c1ccc(=O)n(-c2cccc(-c3ccn(C(F)F)n3)c2)n1)c1cccc(C(F)(F)CO)c1F` [Example 345, N-[(1R)-1-[3-(1,1-difluoro-2-hydroxy-ethyl)-2-fluoro-phenyl]ethyl]-1-[3-[1-(difluoromethyl)pyrazol-3-yl]phenyl]-6-oxo-pyridazine-3-carboxamide] yielded an IC50 of less than 1000 nM.

Turning to `C[C@@H](NC(=O)c1ccc(=O)n(-c2cccc(-c3nnnn3C)c2)n1)c1cc(N)cc(C(F)(F)F)c1` [Example 347, N-[(1R)-1-[3-amino-5-(trifluoromethyl)phenyl]ethyl]-1-[3-(1-methyltetrazol-5-yl)phenyl]-6-oxo-pyridazine-3-carboxamide], the IC50 is less than 1000 nM. Under `C[C@@H](NC(=O)c1ccc(=O)n(-c2cccc(-c3nncn3C)c2)c1)c1cc(N)cc(C(F)(F)F)c1` [Example 348, N-[(1R)-1-[3-amino-5-(trifluoromethyl)phenyl]ethyl]-1-[3-(4-methyl-1,2,4-triazol-3-yl)phenyl]-6-oxo-pyridine-3-carboxamide] stands less than 1000 nM; under `C[C@@H](NC(=O)c1ccc(=O)n(-c2cccc(-c3nnnn3C)c2)c1)c1cc(N)cc(C(F)(F)F)c1` [Example 349, N-[(1R)-1-[3-amino-5-(trifluoromethyl)phenyl]ethyl]-1-[3-(1-methyltetrazol-5-yl)phenyl]-6-oxo-pyridine-3-carboxamide], less than 1000 nM. Under `Cc1nnn(C)c1-c1cccc(-n2nc(C(=O)N[C@H](C)c3cc(N)cc(C(F)(F)F)c3)ccc2=O)c1` [Example 350, N-[(1R)-1-[3-amino-5-(trifluoromethyl)phenyl]ethyl]-1-[3-(3,5-dimethyltriazol-4-yl)phenyl]-6-oxo-pyridazine-3-carboxamide] stands less than 1000 nM; under `C[C@@H](NC(=O)c1ccc(=O)n(-c2cccc(-c3cccc(=O)n3C)c2)n1)c1cc(N)cc(C(F)(F)F)c1` [Example 351, N-[(1R)-1-[3-amino-5-(trifluoromethyl)phenyl]ethyl]-1-[3-(1-methyl-6-oxo-2-pyridyl)phenyl]-6-oxo-pyridazine-3-carboxamide], less than 1000 nM. Take `C[C@@H](NC(=O)c1ccc(=O)n(-c2ccc(F)cc2F)n1)c1cccc(C(F)(F)CO)c1F` [Example 352, N-[(1R)-1-[3-(1,1-difluoro-2-hydroxy-ethyl)-2-fluoro-phenyl]ethyl]-1-(2,4-difluorophenyl)-6-oxo-pyridazine-3-carboxamide]: the IC50 is less than 1000 nM. Under `C[C@@H](NC(=O)c1ccc(=O)n(-c2cccc(C(=O)N(C)C)c2F)n1)c1cccc(C(F)(F)CO)c1F` [Example 353, N-[(1R)-1-[3-(1,1-difluoro-2-hydroxy-ethyl)-2-fluoro-phenyl]ethyl]-1-[3-(dimethylcarbamoyl)-2-fluoro-phenyl]-6-oxo-pyridazine-3-carboxamide] stands less than 1000 nM. Then `C[C@@H](NC(=O)c1ccc(=O)n(-c2cccc(C(=O)N(C)C)c2F)n1)c1cc(N)cc(C(F)(F)F)c1` [Example 354, N-[(1R)-1-[3-amino-5-(trifluoromethyl)phenyl]ethyl]-1-[3-(dimethylcarbamoyl)-2-fluoro-phenyl]-6-oxo-pyridazine-3-carboxamide], with less than 1000 nM; and `C[C@@H](NC(=O)c1ccc(=O)n(-c2cccc(F)c2F)n1)c1cccc(C(F)(F)CO)c1F` [Example 355, N-[(1R)-1-[3-(1,1-difluoro-2-hydroxy-ethyl)-2-fluoro-phenyl]ethyl]-1-(2,3-difluorophenyl)-6-oxo-pyridazine-3-carboxamide], with less than 1000 nM. Under `C[C@@H](NC(=O)c1ccc(=O)n(-c2cc(F)ccc2F)n1)c1cccc(C(F)(F)CO)c1F` [Example 356, N-[(1R)-1-[3-(1,1-difluoro-2-hydroxy-ethyl)-2-fluoro-phenyl]ethyl]-1-(2,5-difluorophenyl)-6-oxo-pyridazine-3-carboxamide] stands less than 1000 nM; under `C[C@@H](NC(=O)c1ccc(=O)n(-c2c(F)cccc2F)n1)c1cccc(C(F)(F)CO)c1F` [Example 357, N-[(1R)-1-[3-(1,1-difluoro-2-hydroxy-ethyl)-2-fluoro-phenyl]ethyl]-1-(2,6-difluorophenyl)-6-oxo-pyridazine-3-carboxamide], 1000 to 10000 nM. In turn, `C[C@@H](NC(=O)c1ccc(=O)n(-c2cccc(-c3cnnn3C)c2F)n1)c1cccc(C(F)(F)CO)c1F` [Example 358, N-[(1R)-1-[3-(1,1-difluoro-2-hydroxy-ethyl)-2-fluoro-phenyl]ethyl]-1-[2-fluoro-3-(3-methyltriazol-4-yl)phenyl]-6-oxo-pyridazine-3-carboxamide] gave an IC50 of less than 1000 nM. Under `C[C@@H](NC(=O)c1ccc(=O)n(-c2cccc(-c3cnnn3C)c2F)n1)c1cc(N)cc(C(F)(F)F)c1` [Example 359, N-[(1R)-1-[3-amino-5-(trifluoromethyl)phenyl]ethyl]-1-[2-fluoro-3-(3-methyltriazol-4-yl)phenyl]-6-oxo-pyridazine-3-carboxamide] stands less than 1000 nM; under `C[C@@H](NC(=O)c1ccc(=O)n(-c2cccnc2F)n1)c1cc(N)cc(C(F)(F)F)c1` [Example 360, N-[(1R)-1-[3-amino-5-(trifluoromethyl)phenyl]ethyl]-1-(2-fluoro-3-pyridyl)-6-oxo-pyridazine-3-carboxamide], less than 1000 nM; under `C[C@@H](NC(=O)c1ccc(=O)n(-c2ccncc2F)n1)c1cccc(C(F)(F)CO)c1F` [Example 361, N-[(1R)-1-[3-(1,1-difluoro-2-hydroxy-ethyl)-2-fluoro-phenyl]ethyl]-1-(3-fluoro-4-pyridyl)-6-oxo-pyridazine-3-carboxamide], less than 1000 nM. Then `C[C@@H](NC(=O)c1ccc(=O)n(-c2ccc(F)cc2F)n1)c1cc(N)cc(C(F)(F)F)c1` [Example 362, N-[(1R)-1-[3-amino-5-(trifluoromethyl)phenyl]ethyl]-1-(2,4-difluorophenyl)-6-oxo-pyridazine-3-carboxamide], with less than 1000 nM; and `C[C@@H](NC(=O)c1nn(-c2ccccc2F)c(=O)cc1O)c1cc(N)cc(C(F)(F)F)c1` [Example 363, N-[(1R)-1-[3-amino-5-(trifluoromethyl)phenyl]ethyl]-1-(2-fluorophenyl)-4-hydroxy-6-oxo-pyridazine-3-carboxamide], with more than 10000 nM.

Consider `C[C@@H](NC(=O)c1nn(-c2ccccc2F)c(=O)cc1OCc1ccccc1)c1cccc(C(F)(F)CO)c1F` [Example 364, 4-benzyloxy-N-[(1R)-1-[3-(1,1-difluoro-2-hydroxy-ethyl)-2-fluorophenyl]ethyl]-1-(2-fluorophenyl)-6-oxo-pyridazine-3-carboxamide], for which the IC50 lay within 1000 to 10000 nM. Then `C[C@@H](NC(=O)c1nn(-c2ccccc2F)c(=O)cc1O)c1cccc(C(F)(F)CO)c1F` [Example 365, N-[(1R)-1-[3-(1,1-difluoro-2-hydroxy-ethyl)-2-fluoro-phenyl]ethyl]-1-(2-fluorophenyl)-4-hydroxy-6-oxo-pyridazine-3-carboxamide], with more than 10000 nM.

`COc1ccc(-n2nc(C(=O)N[C@H](C)c3cccc(C(F)(F)CO)c3F)c(C3CC3)cc2=O)c(F)c1` [Example 366, 4-cyclopropyl-N-[(1R)-1-[3-(1,1-difluoro-2-hydroxy-ethyl)-2-fluorophenyl]ethyl]-1-(2-fluoro-4-methoxy-phenyl)-6-oxopyridazine-3-carboxamide] yielded an IC50 of 1000 to 10000 nM.

For the molecule `COc1ccc(-n2nc(C(=O)N[C@H](C)c3cc(N)cc(C(F)(F)F)c3)c(C3CC3)cc2=O)c(F)c1` [Example 367, N-[(1R)-1-[3-amino-5-(trifluoromethyl)phenyl]ethyl]-4-cyclopropyl-1-(2-fluoro-4-methoxy-phenyl)-6-oxo-pyridazine-3-carboxamide], the IC50 was 1000 to 10000 nM.

The record behind these values is patent publication EP4667458A1 (Kanaph Therapeutics Inc., priority 2023, dated 2024).
